From patent EP1505089B1, “Cationic (alkyl)acrylamide derivative, polymer based on these derivates, and transfection system comprising said polymer” (OctoPlus Technologies B.V., priority 2003, dated 2005) come the findings set out here.

The series in a line: Degradation of the monomer followed with RP-HPLC. It counts as physicochemical. The note with it: 37 °C. The procedure: Degradation of the monomer was followed with RP-HPLC at 37 °C. The relative peak areas of the monomer and its degradation product HPMA as a function of time are depicted in figure 1(A) for pH 10, 1(B) for pH 7.4 and 1(C) for pH 5.0.

As for `C=C(C)C(=O)NCC(C)OC(=O)OCCN(C)C` (stereo not drawn) [HPMA-DMAE], the “half-life of the monomer” value reads like this: (pH 5.0, RP-HPLC) 380 h; (pH 7.4, RP-HPLC) 9.6 h; (pH 10, RP-HPLC) 1.1 h.
